Experimental data published in patent US20080132466A1, “Blood Cholesterol Reducing Oral Composition” (priority 2005, published 2008).

Tested on: Wister-ST male rats
Experiment: Total plasma cholesterol lowering effect of DFA and isoflavone in combination, rats fed for 19 days
Type: in vivo
Conditions: 1.5% in isoflavone-containing feed
Excerpt: A total plasma cholesterol lowering effect was studied using DFA and an isoflavone in combination.
After preliminary feeding 21 Wister-ST male rats (6 weeks of age) a non-isoflavone feed for 3 days, the animals were divided into 3 groups (each n=7) by a body weight stratification procedure and were individually fed for 19 days a basal feed containing 0.25% food product supplemented with 40% isoflavone (basal diet group), a feed in which cellulose in the basal feed was replaced with 1.5% (final) DFA III (DFA III group), and a feed in which cellulose in the basal feed was replaced with 1.5% (final) fructooligosaccharide (FOS group), as shown in Table 1. On the 20th day, blood samples were taken from the abdominal aorta to obtain plasma by centrifugation and the total plasma cholesterol was measured using an automatic analyzer (DRI-CHEM 3500, Fuji Film Medical).
In the table, figures with different alphabets, a and b, denote that there is a significant difference between the figures. […] The level of HDL cholesterol was slightly low in the DFA III group; however, the differences between the groups were not significant.

OC[C@H]1O[C@@]2(CO[C@]3(CO)O[C@H](CO)[C@@H](O)[C@@H]3O2)[C@@H](O)[C@@H]1O [DFA III, difructose anhydride]
level of HDL cholesterol (in words) (differences between groups not significant): slightly low | total serum cholesterol level compared to the group fed an isoflavone alone (in words) (p=0.051 (Sheffe) basal diet vs DFA III): tended to be lowered
